The values below come from US20090214466A1 (priority 2006, published 2009).

Common to all, as to conditions: human, in vivo
Experiment [1] has as its system migraine symptoms.
Experiment [2] deals with symptoms of post-laminectomy syndrome.
Experiment [3] has as its system migraine symptoms. The source holds these as a separate data set.

etanercept [ENBREL® etanercept]: the “frequency and severity of migraine symptoms” value in the experiment on migraine symptoms [1] is “Reduction in the frequency and severity of migraine symptoms was reported”.

On to infliximab [REMICADE® infliximab], for which the “symptoms of post-laminectomy syndrome” value in experiment [2] is “reduced symptoms”.

As for “botulinum toxin type A [BOTOX® botulinum toxin type A]”, the “frequency, severity, and duration of migraine symptoms” value with migraine symptoms [3] is “Reduction in the frequency, severity, and duration of migraine symptoms was reported”.
